# Assay results as given in patent US4272437A, “Antibacterial agents, and 4-thio azetidinone intermediates” (priority 1979, dated 1981).
# Like-named read-outs stand apart in the source and are kept apart here.
# Columns and labels:
# [1] = test system: Staph. aureus (Meth-Res) A-15097; assay: MIC, tube dilution, Staphylococcus aureus A15097 (Meth-Res); assay type: cell-based; settings: Staphylococcus aureus, overnight 37° C.
# Description: (§1) Representative compounds of the present invention were subjected to in vitro antibiotic screening against a variety of microorganisms.
# Pr. vulgaris A-9716 = assay: MIC, tube dilution, Proteus vulgaris / Proteus mirabilis A9716; assay type: cell-based, Proteus vulgaris (name changed to Proteus mirabilis); settings: Proteus vulgaris, overnight 37° C.
# Description: as §1
# Staph. aureus A-9537 = assay: MIC, tube dilution, Staphylococcus aureus A9537; assay type: cell-based; settings: Staphylococcus aureus, A9537, Staph. aureus A9537; overnight 37° C., Nutrient Broth; read-out: Minimum Inhibitory Concentration (M.I.C.)
# Description: as §1
# Ent. cloacae A-9659 = assay: MIC, tube dilution, Enterobacter cloacae A9659; assay type: cell-based; settings: Enterobacter cloacae, A9659, Enterobacter cloacae A9659; overnight 37° C.; read-out: Minimum Inhibitory Concentration (M.I.C.)
# Description: as §1
# Ser. marcescens A-20019 = assay: MIC, tube dilution, Serratia marcescens A20019; assay type: cell-based; settings: Serratia marcescens, A20019, Serratia marcescens A20019; overnight 37° C.; read-out: Minimum Inhibitory Concentration (M.I.C.)
# Description: as §1
# Str. pneumoniae A-9585 = assay: MIC, tube dilution, Streptococcus pneumoniae A9585; assay type: cell-based; settings: Streptococcus pneumoniae, A9585, Str. pneumoniae A9585; overnight 37° C., Nutrient Broth; read-out: Minimum Inhibitory Concentration (M.I.C.)
# Description: as §1
# [2] = test system: Staph. aureus A-9537 and 50% serum; assay: MIC, tube dilution, Staph. aureus A9537 + 50% serum; assay type: cell-based, Staphylococcus aureus; settings: Staphylococcus aureus, overnight 37° C., read-out: Minimum Inhibitory Concentration (M.I.C.)
# Description: as §1
# Ent. cloacae A-9656 = assay: MIC, tube dilution, Enterobacter cloacae A9656; assay type: cell-based; settings: overnight 37° C., read-out: Minimum Inhibitory Concentration (M.I.C.)
# Description: as §1
# Ps. aeruginosa A-21213 = assay: MIC, tube dilution, Pseudomonas aeruginosa A21213; assay type: cell-based; settings: overnight 37° C., read-out: Minimum Inhibitory Concentration (M.I.C.)
# Description: as §1
# [3] = test system: Klebsiella species A20468; assay: MIC, tube dilution, Klebsiella species A20468; assay type: cell-based; settings: Klebsiella species (K. pneumoniae) A20468; overnight 37° C.; read-out: Minimum Inhibitory Concentration (M.I.C.)
# Description: as §1
# E. coli A-15119 = assay: MIC, tube dilution, Escherichia coli A15119; assay type: cell-based; settings: Escherichia coli, A15119, E. coli A15119; overnight 37° C.; read-out: Minimum Inhibitory Concentration (M.I.C.)
# Description: as §1
# Pr. morganii A-15153 = assay: MIC, tube dilution, Proteus morganii A15153; assay type: cell-based; settings: Morganella morganii, A15153, Proteus morganii A15153; overnight 37° C.; read-out: Minimum Inhibitory Concentration (M.I.C.)
# Description: as §1
# Str. pyogenes A-9604 = assay: MIC, tube dilution, Streptococcus pyogenes A9604; assay type: cell-based; settings: Streptococcus pyogenes, A9604, Str. pyogenes A9604; overnight 37° C., Nutrient Broth; read-out: Minimum Inhibitory Concentration (M.I.C.)
# Description: as §1
# E. coli A-20341-1 = assay: MIC, tube dilution, Escherichia coli A20341-1; assay type: cell-based
# Description: as §1
# Proteus rettgeri A21203 = assay: MIC, tube dilution, Proteus rettgeri A21203; assay type: cell-based; settings: Providencia rettgeri, overnight 37° C., read-out: Minimum Inhibitory Concentration (M.I.C.)
# Description: as §1
# Str. faecalis A-20688 = assay: MIC, tube dilution, Streptococcus faecalis A20688; assay type: cell-based; settings: Enterococcus faecalis, A20688, Str. faecalis A20688; overnight 37° C.; read-out: Minimum Inhibitory Concentration (M.I.C.)
# Description: as §1
# Pr. mirabilis A-9900 = assay: MIC, tube dilution, Proteus mirabilis A9900; assay type: cell-based; settings: Proteus mirabilis, A9900, Proteus mirabilis A9900; overnight 37° C.; read-out: Minimum Inhibitory Concentration (M.I.C.)
# Description: as §1
# Ps. aeruginosa A-9843A = assay: MIC, tube dilution, Pseudomonas aeruginosa A9843A; assay type: cell-based; settings: Pseudomonas aeruginosa, A9843A, read-out: Minimum Inhibitory Concentration (M.I.C.), Pseudomonas aeruginosa A9843A; overnight 37° C.
# Description: as §1
# [4] = test system: Staph. aureus (Pen-Res) A-9606; assay: MIC, tube dilution, Staphylococcus aureus A9606 (Pen-Res); assay type: cell-based; settings: Staphylococcus aureus, overnight 37° C.
# Description: as §1
# K. pneumoniae A-15130 = assay: MIC, tube dilution, Klebsiella pneumoniae A15130; assay type: cell-based; settings: Klebsiella pneumoniae, A15130, K. pneumoniae A15130; overnight 37° C.; read-out: Minimum Inhibitory Concentration (M.I.C.)
# Description: as §1
# [5] = read-out: Minimum Inhibitory Concentration (M.I.C.), Staph. aureus A15097 (Meth-Res)
# [6] = A9716, read-out: Minimum Inhibitory Concentration (M.I.C.), Proteus vulgaris / Proteus mirabilis A9716
# [7] = Escherichia coli, A203411; E. coli A20341-1; overnight 37° C.; read-out: Minimum Inhibitory Concentration (M.I.C.)
# [8] = read-out: Minimum Inhibitory Concentration (M.I.C.), Staph. aureus A9606 (Pen-Res)
# [9] = A9716, Proteus vulgaris / Proteus mirabilis A9716, read-out: Minimum Inhibitory Concentration (M.I.C.)
# [10] = Enterobacter cloacae, A9656, Enterobacter cloacae A9656
# [11] = A21203, Proteus rettgeri A21203
# [12] = Staph. aureus A9606 (Pen-Res), read-out: Minimum Inhibitory Concentration (M.I.C.)
Compound,"MIC [1, 5]",MIC (Staph. aureus A-9537),MIC (Ent. cloacae A-9659),MIC (Ser. marcescens A-20019),MIC (Str. pneumoniae A-9585),MIC [2],MIC (Ent. cloacae A-9656; Enterobacter cloacae A9656),MIC (Ps. aeruginosa A-21213; Pseudomonas aeruginosa A21213),MIC [3],MIC (E. coli A-15119),MIC (Pr. morganii A-15153),MIC (Str. pyogenes A-9604),MIC (E. coli A-20341-1; [7]),MIC (Proteus rettgeri A21203; Proteus rettgeri A21203),MIC (Str. faecalis A-20688),MIC (Pr. mirabilis A-9900),MIC (Ps. aeruginosa A-9843A),"MIC [4, 8]",MIC (K. pneumoniae A-15130),MIC (Pr. vulgaris A-9716; [9]),also measured
"O=C(O)C1=C(C(F)(F)F)SC2CC(=O)N12 (stereo not drawn) [Example 17, Sodium 2-Trifluoromethylpenem-3-carboxylate]",> 125 µg/mL,> 8 µg/mL,> 125 µg/mL,> 125 µg/mL,> 8 µg/mL,> 63 µg/mL,> 125 µg/mL,125 µg/mL,> 125 µg/mL,125 µg/mL,> 125 µg/mL,> 8 µg/mL,> 125 µg/mL,125 µg/mL,> 125 µg/mL,> 125 µg/mL,125 µg/mL,> 125 µg/mL,> 125 µg/mL,,MIC (Pr. vulgaris A-9716; [6]): > 125 µg/mL
"O=C(O)C1=C(Cc2cscn2)SC2CC(=O)N12 (stereo not drawn) [Example 18, 2-(4'-Thiazolyl)methylpenem-3-carboxylic Acid]",> 125 µg/mL,125 µg/mL,> 125 µg/mL,> 125 µg/mL,125 µg/mL,> 63 µg/mL,> 125 µg/mL,125 µg/mL,125 µg/mL,> 125 µg/mL,125 µg/mL,> 125 µg/mL,> 125 µg/mL,125 µg/mL,> 125 µg/mL,> 125 µg/mL,125 µg/mL,> 125 µg/mL,> 125 µg/mL,,MIC (Pr. vulgaris A-9716; [6]): 125 µg/mL
"O=C(O)C1=CSC2CC(=O)N12 (stereo not drawn) [Example 19, Penem-3-carboxylic Acid]",,4 µg/mL,16 µg/mL,16 µg/mL,0.5 µg/mL,63 µg/mL,,,> 125 µg/mL,8 µg/mL,16 µg/mL,2 µg/mL,,,125 µg/mL,16 µg/mL,63 µg/mL,,16 µg/mL,16 µg/mL,"MIC ([1]; Staph. aureus A15097 (Meth-Res), read-out: Minimum Inhibitory Concentration (M.I.C.)): 63 µg/mL; MIC (Ent. cloacae A-9656; [10]): 16 µg/mL; MIC (Ps. aeruginosa A-21213; Pseudomonas aeruginosa, A21213, Pseudomonas aeruginosa A21213): 125 µg/mL; MIC (E. coli A-20341-1; Escherichia coli, A203411, E. coli A20341-1; overnight 37° C.; read-out: Minimum Inhibitory Concentration (M.I.C.)): 16 µg/mL; MIC (Proteus rettgeri A21203; [11]): 16 µg/mL; MIC [4, 12]: 8 µg/mL"
Cc1cc(CC2=C(C(=O)O)N3C(=O)CC3S2)on1 (stereo not drawn) [Example 20],> 125 µg/mL,> 125 µg/mL,> 125 µg/mL,> 125 µg/mL,8 µg/mL,> 63 µg/mL,> 125 µg/mL,125 µg/mL,> 125 µg/mL,> 125 µg/mL,125 µg/mL,63 µg/mL,> 125 µg/mL,125 µg/mL,> 125 µg/mL,> 125 µg/mL,125 µg/mL,> 125 µg/mL,> 125 µg/mL,,MIC (Pr. vulgaris A-9716; [6]): 125 µg/mL
"O=C(O)C1=C(C2CCC2)SC2CC(=O)N12 (stereo not drawn) [Example 21, 2-Cyclobutylpenem-3-carboxylic Acid]",> 125 µg/mL,0.13 µg/mL,16 µg/mL,16 µg/mL,0.13 µg/mL,> 63 µg/mL,,125 µg/mL,> 125 µg/mL,4 µg/mL,16 µg/mL,1 µg/mL,125 µg/mL,,16 µg/mL,2 µg/mL,125 µg/mL,,16 µg/mL,2 µg/mL,"MIC (Ent. cloacae A-9656; [10]): 32 µg/mL; MIC (Proteus rettgeri A21203; [11]): 4 µg/mL; MIC [4, 12]: 8 µg/mL"
"CON=C(C)CC1=C(C(=O)O)N2C(=O)CC2S1 (stereo not drawn) [Example 44, Sodium 2-(Acetonylmethyl oxime)-penem-3-carboxylate]",> 125 µg/mL,32 µg/mL,> 125 µg/mL,> 125 µg/mL,2 µg/mL,> 63 µg/mL,> 125 µg/mL,125 µg/mL,> 125 µg/mL,63 µg/mL,125 µg/mL,16 µg/mL,> 125 µg/mL,125 µg/mL,125 µg/mL,63 µg/mL,125 µg/mL,> 125 µg/mL,> 125 µg/mL,63 µg/mL,
"Nc1ccccc1CC1=C(C(=O)O)N2C(=O)CC2S1 (stereo not drawn) [Example 45, Sodium 2-(2'-Aminophenyl)methylpenem-3-carboxylate]",125 µg/mL,1 µg/mL,125 µg/mL,125 µg/mL,0.5 µg/mL,63 µg/mL,125 µg/mL,125 µg/mL,125 µg/mL,125 µg/mL,125 µg/mL,1 µg/mL,125 µg/mL,,125 µg/mL,32 µg/mL,125 µg/mL,,125 µg/mL,63 µg/mL,"MIC (Proteus rettgeri A21203; [11]): 63 µg/mL; MIC [4, 12]: 4 µg/mL"
"O=C([O-])C1=C(Cc2ccco2)S[C@@H]2CC(=O)N12.[Na+] [Preparation 18, Sodium 2-(2-Furylmethyl)penem-3-carboxylate]",16 µg/mL,0.5 µg/mL,16 µg/mL,32 µg/mL,0.06 µg/mL,> 63 µg/mL,32 µg/mL,> 125 µg/mL,> 125 µg/mL,2 µg/mL,8 µg/mL,0.25 µg/mL,> 125 µg/mL,4 µg/mL,63 µg/mL,2 µg/mL,> 125 µg/mL,1 µg/mL,32 µg/mL,,MIC (Pr. vulgaris A-9716; [6]): 2 µg/mL
"O=C(O)C1=C(Cc2c[nH]c3ccccc23)SC2CC(=O)N12 (stereo not drawn) [Preparation 19, 2-(3'-Indole)methylpenem-3-carboxylic Acid]",125 µg/mL,0.03 µg/mL,63 µg/mL,63 µg/mL,0.03 µg/mL,32 µg/mL,,> 125 µg/mL,> 125 µg/mL,8 µg/mL,2 µg/mL,0.06 µg/mL,> 125 µg/mL,,125 µg/mL,1 µg/mL,> 125 µg/mL,,32 µg/mL,2 µg/mL,"MIC (Ent. cloacae A-9656; [10]): 63 µg/mL; MIC (Proteus rettgeri A21203; [11]): 2 µg/mL; MIC [4, 12]: 0.5 µg/mL"
